Columns and labels:
Experiment in all cases: relative viability (nuclei count vs DMSO), 5 days (fraction); higher = more cells survive
[1] = compound: CC(C)CCN1c2nc(Nc3cc(F)c(O)c(F)c3)ncc2N(C)C(=O)C1C [BI-D1870] + COc1cc2c(Oc3ccc(NC(=O)C4(C(=O)Nc5ccc(F)cc5)CC4)cc3F)ccnc2cc1OCCCN1CCOCC1 [Foretinib] (partner 0.25 µM)
In short: (§1)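 Relative viability equals treated-well nuclei counts divided by vehicle-well nuclei counts. Counts came from 4× images of lung cancer cell lines grown in 1536-well plates for 5 days after pin-tool dosing on the day after seeding. Dosing used one drug alone or a fixed anchor-drug dose plus five library-drug doses (not always all listed) in √10 steps, and values are medians of duplicate plates.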

[2] = compound: CC(C)CCN1c2nc(Nc3cc(F)c(O)c(F)c3)ncc2N(C)C(=O)C1C [BI-D1870] + Nc1ncn([C@H]2C[C@H](O)[C@@H](CO)O2)c(=O)n1 [Decitabine] (partner 2 µM)
In short: as §1

[3] = compound: O=c1ncccn1[C@@H]1O[C@H](CO)[C@@H](O)[C@H]1O [Zebularine] + CC1(C)CCC(c2ccc(Cl)cc2)=C(CN2CCN(c3ccc(C(=O)NS(=O)(=O)c4ccc(N[C@H](CCN5CCOCC5)CSc5ccccc5)c(S(=O)(=O)C(F)(F)F)c4)cc3)CC2)C1 [Navitoclax] (partner 0.5 µM)
In short: as §1

[4] = compound: O=c1ncccn1[C@@H]1O[C@H](CO)[C@@H](O)[C@H]1O [Zebularine] + Nc1ncn([C@H]2C[C@H](O)[C@@H](CO)O2)c(=O)n1 [Decitabine] (partner 2 µM)
In short: as §1

| Cell Line | relative viability ([1]; first compound 0.04 µM) | relative viability ([1]; first compound 0.1265 µM) | relative viability ([1]; first compound 0.4 µM) | relative viability ([1]; first compound 1.265 µM) | relative viability ([1]; first compound 4 µM) | relative viability ([2]; first compound 0.04 µM) | relative viability ([2]; first compound 0.1265 µM) | relative viability ([2]; first compound 0.4 µM) | relative viability ([2]; first compound 1.265 µM) | relative viability ([2]; first compound 4 µM) | relative viability ([3]; first compound 1 µM) | relative viability ([3]; first compound 3.162 µM) | relative viability ([3]; first compound 10 µM) | relative viability ([3]; first compound 31.62 µM) | relative viability ([3]; first compound 100 µM) | relative viability ([4]; first compound 1 µM) | relative viability ([4]; first compound 3.162 µM) | relative viability ([4]; first compound 31.62 µM) | relative viability ([4]; first compound 100 µM) | relative viability ([4]; first compound 10 µM) |
| --- | --- | --- | --- | --- | --- | --- | --- | --- | --- | --- | --- | --- | --- | --- | --- | --- | --- | --- | --- | --- |
| HCC-78 | 0.599 | 0.522 | 0.529 | 0.592 | 0.481 | 0.755 | 0.774 | 0.791 | 0.727 | 0.746 | 0.811 | 0.775 | 0.592 | 0.497 | 0.22 | 0.732 | 0.643 | 0.663 | 0.449 |  |
| HCC-366 | 0.957 | 0.906 | 0.932 | 0.896 | 0.943 | 0.337 | 0.306 | 0.322 | 0.469 | 0.414 | 1.12 | 1.02 | 0.449 | 0.556 | 0.0921 | 0.412 | 0.336 | 0.389 | 0.108 | 0.274 |
| HCC-827 | 1.05 | 0.968 | 0.967 | 1.06 | 1.03 | 0.333 | 0.322 | 0.306 | 0.365 | 0.402 | 0.98 | 0.986 | 0.968 | 0.714 | 0.418 | 0.42 | 0.353 | 0.259 | 0.346 | 0.259 |
| HOP-62 | 1.27 | 1.03 | 1.07 | 1.06 | 0.924 | 0.212 | 0.241 | 0.208 | 0.198 | 0.314 | 1.11 | 1.01 | 0.424 | 0.217 | 0.197 | 0.205 | 0.205 | 0.164 | 0.178 | 0.209 |
| IA-LM | 1.24 | 1.07 | 1.32 | 1.03 | 0.977 |  |  |  |  |  | 0.899 | 0.688 | 0.506 | 0.805 | 0.616 |  |  |  |  |  |
| LC-2-ad | 1.01 | 0.932 | 0.946 | 0.975 | 0.626 | 0.834 | 0.72 | 0.842 | 0.893 | 0.791 | 0.409 | 0.422 | 0.291 | 0.33 | 0.137 | 0.83 | 0.796 | 0.72 | 0.329 | 0.554 |
| LCLC-97TM1 | 1.1 | 0.975 | 0.893 | 1.09 | 0.843 | 0.236 | 0.231 | 0.209 | 0.255 | 0.262 | 0.422 | 0.351 | 0.238 | 0.149 | 0.143 | 0.211 | 0.202 | 0.176 | 0.117 | 0.183 |
| LCLC-103H | 0.842 | 0.662 | 0.777 | 0.866 | 0.566 | 0.706 | 0.588 | 0.723 | 0.804 | 0.678 |  |  |  |  |  | 0.801 | 0.727 | 0.719 | 0.666 | 0.713 |
| LK-2 | 1.32 | 1.13 | 1.34 | 1.51 | 1.6 | 0.373 | 0.317 | 0.379 | 0.353 | 0.342 | 0.759 | 0.946 | 0.588 | 0.787 | 0.417 | 0.34 | 0.338 | 0.288 | 0.194 | 0.274 |
| LOU-NH91 | 0.979 | 0.897 | 0.876 | 1.01 | 0.817 | 0.876 | 0.8 | 0.792 | 0.821 | 0.629 | 0.676 | 0.659 | 0.634 | 0.603 | 0.395 | 0.842 | 0.802 | 0.849 | 0.593 | 0.744 |
| NCI-H358 | 0.657 | 0.529 | 0.669 | 0.752 | 0.433 | 0.201 | 0.195 | 0.202 | 0.21 | 0.229 |  |  |  |  |  | 0.219 | 0.172 | 0.214 | 0.144 | 0.178 |
| NCI-H522 |  |  |  |  |  | 0.595 | 0.762 | 0.677 | 0.647 | 0.661 |  |  |  |  |  | 0.621 | 0.577 | 0.61 | 0.639 | 0.641 |
| NCI-H650 | 1.03 | 0.937 | 0.968 | 1.04 | 0.894 | 0.336 | 0.339 | 0.331 | 0.314 | 0.286 |  |  |  |  |  | 0.28 | 0.285 | 0.298 | 0.297 | 0.31 |
| NCI-H661 | 1.02 | 0.989 | 1.04 | 1.03 | 0.969 | 0.524 | 0.555 | 0.542 | 0.651 | 0.546 |  |  |  |  |  | 0.564 | 0.551 | 0.608 | 0.505 | 0.48 |
| NCI-H1299 | 1.13 | 1.07 | 1.08 | 1.08 | 0.952 |  |  |  |  |  | 1.05 | 1.07 | 0.782 | 1.06 | 0.526 |  |  |  |  |  |
| NCI-H1563 | 0.957 | 0.927 | 0.939 | 1.04 | 0.967 |  |  |  |  |  |  |  |  |  |  |  |  |  |  |  |
| NCI-H1648 |  |  |  |  |  | 0.463 | 0.505 |  | 0.527 | 0.578 |  |  |  |  |  | 0.456 | 0.478 | 0.487 | 0.438 | 0.368 |
| NCI-H1703 | 0.381 |  | 0.295 | 0.355 | 0.385 |  |  |  |  |  | 1.17 | 0.915 | 0.859 | 1.31 | 0.813 |  |  |  |  |  |
| NCI-H1792 |  |  |  |  |  | 0.558 | 0.525 | 0.596 | 0.851 | 0.666 | 0.61 | 0.679 | 0.816 | 0.325 | 0.18 | 0.62 | 0.531 | 0.292 | 0.254 | 0.292 |
| NCI-H2228 | 1.03 | 0.806 | 0.941 | 0.821 | 0.647 |  |  |  |  |  | 1.46 | 0.843 | 0.655 | 0.722 | 0.191 |  |  |  |  |  |
| NCI-H2342 | 1.04 | 1 | 1.11 | 1.18 | 1.23 | 0.714 | 0.69 | 0.793 | 0.891 | 0.795 |  |  |  |  |  | 0.744 | 0.749 | 0.815 | 0.696 | 0.699 |
| SW 900 | 0.855 | 0.949 | 0.893 | 0.751 | 1.22 | 0.479 | 0.47 | 0.472 | 0.534 | 0.498 |  |  |  |  |  | 0.512 | 0.4 | 0.43 | 0.432 |  |

From the supplement of paper PMC10307832
